Assay results taken from US4727090A, “Process for preparing and therapeutical applications of the 2,4,6-triiodophenol” (Bislak, S.A., priority 1983, dated 1988).
Where two headings read alike, the source gives them in different places.

Experiments:
[1] = system: granuloma formed around cotton implant; assay: Cotton implant granuloma test; type: in vivo, rats; settings: 72 hours
Procedure: (B) To a group of 10 rats of about 200-225 g is implanted at the dorsal zone, subcutaneously, balled cotton (about 9 mg) impregnated and afterwards dried with a solution of medicamentous substance and which amount is known.
We use as reference Dexamethasone and controls without medicament.
After 72 hours, once the animal is sacrificed, the granuloma formed around the implant is extracted and weighed, after drying at 100° C.
The antiinflammatory reduces the weight of the granuloma.

[2] = system: acetic acid induced pullings; assay: Writhing syndrome test (acetic acid); type: in vivo, mice; settings: 500 mg/kg oral; for inhibition at 500 mg/kg: Mus musculus, po, read-out: % INHIB. (pullings)
Procedure: Irritant substance: acetic acid at 0.5% injected via intraperitoneal.
Foundation of the method consists in provoking a dolorous syndrome by pulling and torsion of the stomach and the hind legs of the animals.
These pullings or stretchings are calculated during a certain time, using it as the measure of the provoked ache.
Mice of about 22 g by weight were used, animals were left under abstinence during 24 hours before carrying out the test.
Mice were previously selected as to each individual response to the dolorous stimulus provoked by an intraperitoneal injection of 0.2 ml of an acetic acid aqueous solution at the 0.5%. Valid animals for realizing the test are those which respond within a margin of 15-35 pullings in about 5 to 15 minutes after the injection. The remaining animals are not useful.
Medication is realized via oral with the help of an esophageal cannula.
White lot: Administration of 0.1 ml of CMC 1% for each 10 g of corporal weight.
2,4,6-triiodophenol lot: Administration of 10 mg/kg of the product, suspended in CMC of 1%.
Aspirin-Lysin lot (Solusprin): Administration of 500 mg/kg aspirin, dissolved at 1%.
After medication, one has to wait 20 minutes for injecting 0.2 ml acetic acid of 0.5% via intraperitoneal, calculating the number of pullings during 5 minutes. […]
The test was carried out in 9 mice in each lot.

Carrageenin leg oedema [3] = assay: Carrageenin leg oedema test; type: in vivo, white rats; settings: Rattus norvegicus, 10 mg/kg oral
Carrageenin leg oedema [4] = assay: Carrageenin leg oedema test; type: in vivo, white rats; settings: Rattus norvegicus; 10 mg/kg oral, 4 hours
Procedure: (A) The antiinflammatory action is shown in white rats, of a weight of about 200-225 g, having provoked in these animals the leg oedema by means of an injection in the sole of the foot of 0.1 ml of a 1% Carrageenin solution.
One control group of ten animals, another the same medicated with indomethacin via oral at 30 mg/kg, in suspension in a carboxymethylcellulose solution, another group of ten rats, medicated with triiodophenol in oral solution at 5 mg/kg, another group medicated with triioodophenol at 1 mg/kg, injected via intramuscular and another group medicated with triiodophenol at 0.5 mg/kg via intramuscular. All medications are administered simultaneously to the formation of Edema.
The volume of the same is measured at 0 hours, 3 hours, 4 hours, 5 hours and 6 hours with a mercury Plestimograph.

[5] = system: sensation of pain on hot plate; assay: Hot plate test at 56° C; type: in vivo, mice; settings: 500 mg/kg injection
Procedure: (A) To control analgesic activity we use mice of about 25 g by weight, in groups of ten mice, subjected to the test of the hot plate at 56° C.
Animals receive a medicamentous injection of 0.1 ml of solubilized aspirin with sodium bicarbonate, or of solubilized triiodophenol at pH 9'5.
Controls receive physiologic serum.
The time in which the animals indicate sensation of pain is measured with a chronometer.
In the hereunder table the results testing animals, 15 min. and 30 min. after the medication. Average values are taken of each group.

SMILES: C[C@@H]1C[C@H]2[C@@H]3CCC4=CC(=O)C=C[C@]4(C)[C@@]3(F)[C@@H](O)C[C@]2(C)[C@@]1(O)C(=O)CO [Dexamethansone, reference compound]
- % Reduction of the granuloma (Average) ([1]; 10 micrograms per implant): 16%
- % Reduction of the granuloma (Average) ([1]; 20 micrograms per implant): 28%
- % Reduction of the granuloma (Average) ([1]; 40 micrograms per implant): 30%

SMILES: CC(=O)Oc1ccccc1C(=O)O [ASPIRIN, reference compound]
- Total No. pullings ([2]; 20'): 12
- Total No. pullings ([2]; 30'): 6
- Total No. pullings ([2]; 100'): 6
- inhibition at 500 mg/kg ([2]; 20'): 90%
- inhibition at 500 mg/kg ([2]; 30'): 89.2%

SMILES: COc1ccc2c(c1)c(CC(=O)O)c(C)n2C(=O)c1ccc(Cl)cc1 [Indomethacin]
- inhibition at 10 mg/kg (Carrageenin leg oedema [3]; 3 hours): 59%
- inhibition at 10 mg/kg (Carrageenin leg oedema [3]; 5 hours): 69%
- inhibition at 10 mg/kg (Carrageenin leg oedema [3]; 6 hours): 73%
- inhibition at 10 mg/kg (Carrageenin leg oedema [4]): 63%

SMILES: CC(=O)Oc1ccccc1C(=O)O [Acetyl salicylic acid, reference compound]
- Time to sensation of pain ([5]; 15 minutes): 4,3 sec.
- Time to sensation of pain ([5]; 30 minutes): 6,8 sec.
